Laboratory results taken from ChEMBL document CHEMBL4665837, “Soluble guanylate cyclase stimulators for the treatment of hypertension: Discovery of MK-2947” (Bioorg Med Chem Lett, 2020).

Assays:
[1] = Half life in rat at 1 mg/kg, iv and 2 mg/kg, po; format: ADME, organism-based; settings: in vivo
[2] = Oral bioavailability in rat at 2 mg/kg; format: ADME, organism-based; settings: in vivo
[3] = AUCt/dose in Sprauge-Dawley rat; format: ADME; settings: in vivo
[4] = Oral bioavailability in Sprauge-Dawley rat; format: ADME, organism-based; settings: Sprague-Dawley, in vivo
[5] = Drug level in SRH rat plasma at 0.3 mg/kg , po measured after 4 hrs; format: ADME, organism-based
[6] = Half life in monkey at 0.5 mg/kg, iv and 2 mg/kg, po; format: ADME, organism-based, Macaca mulatta; settings: rhesus monkey, in vivo
[7] = Clearance in dog at 1 mg/kg, iv and 10 mg/kg, po; format: ADME, organism-based, Canis lupus familiaris; settings: in vivo
[8] = Oral bioavailability in monkey at 2 mg/kg, po; format: ADME, organism-based, Macaca mulatta; settings: rhesus monkey, in vivo
[9] = Drug level in SRH rat plasma at 3 mg/kg , po measured after 4 hrs; format: ADME, organism-based
[10] = Oral bioavailability in dog at 10 mg/kg; format: ADME, organism-based, Canis lupus familiaris; settings: in vivo
[11] = Half life in rat at 2 mg/kg, po; format: ADME, organism-based; settings: in vivo
[12] = Clearance in rat at 1 mg/kg, iv and 2 mg/kg, po; format: ADME, organism-based; settings: in vivo
[13] = Clearance in monkey at 0.5 mg/kg, iv and 2 mg/kg, po; format: ADME, organism-based, Macaca mulatta; settings: rhesus monkey, in vivo
[14] = Drug level in SRH rat plasma a 1 mg/kg , po measured after 4 hrs; format: ADME, organism-based
[15] = Half life in dog at 1 mg/kg, iv and 10 mg/kg, po; format: ADME, organism-based, Canis lupus familiaris; settings: in vivo
[16] = Total Plasma clearance in Sprauge-Dawley rat; format: ADME; settings: Sprague-Dawley
[17] = Half life in Sprauge-Dawley rat; format: ADME; settings: Sprague-Dawley, in vivo

| half-life [1] | bioavailability [2] | AUCt/dose [3] | bioavailability [4] | clearance [16] | half-life [17] | Structure (SMILES) | other results |
| --- | --- | --- | --- | --- | --- | --- | --- |
| 0.9 h | 15% |  |  |  |  | COC(=O)N(C)c1c(N)nc(-c2nc(Cc3ccccc3F)n3ccccc23)nc1N |  |
| 0.9 h | 32% |  |  |  |  | COC(=O)N(C)c1c(N)nc(-n2nc(Cc3ccccc3F)c3ccccc32)nc1N |  |
|  |  | 25.2 µM·kg·h/mg | 37% |  |  | COC(=O)Nc1c(N)nc(-n2nc(Cc3c(F)ccc(F)c3F)c3cc(Cl)ccc32)nc1N |  |
|  | 80% |  |  |  |  | CC1(C)C(=O)Nc2nc(-n3nc(CCC(F)(F)F)c4cc(Cl)ccc43)nc(N)c21 | concentration at 4 h [5]: 36 nM; half-life [6]: 1.4 h; clearance [7]: 39 mL/min/kg; bioavailability [8]: 63%; concentration at 4 h [9]: 392 nM; bioavailability [10]: 21%; half-life [11]: 2.6 h; clearance [12]: 29 mL/min/kg; clearance [13]: 34 mL/min/kg; concentration at 4 h [14]: 145 nM; half-life [15]: 1.3 h |
| 0.6 h | 4% |  |  |  |  | COC(=O)N(C)c1c(N)nc(-c2nc(Cc3ccccc3F)n3ncccc23)nc1N |  |
|  |  | 18 µM·kg·h/mg | 51% | 0.9 mL/min/kg | 3.6 h | COC(=O)N(C)c1c(N)nc(-n2nc(Cc3c(F)ccc(F)c3F)c3cc(Cl)ccc32)nc1N |  |
|  |  | 4.6 µM·kg·h/mg | 22% | 1.4 mL/min/kg | 1.5 h | COC(=O)N(C)c1c(N)nc(-n2nc(Cc3ccccc3F)c3cc(F)ccc32)nc1N |  |
|  |  | 15.3 µM·kg·h/mg | 68% | 1.6 mL/min/kg | 2.2 h | COC(=O)N(C)c1c(N)nc(-n2nc(Cc3c(F)ccc(F)c3F)c3ccccc32)nc1N |  |
